Measured values: US10870710B2, “Synthetic oligosaccharide subunits of the Psl exopolysaccharide of pseudomonas aeruginosa and uses thereof” (Medlmmune Limited, priority 2013, dated 2020)

The compounds below were run on anti-Psl mAb WapR-016 (class III) (assay: ELISA, class III mAb WapR-016 binding to oligosaccharide-BSA conjugates). Details: oligosaccharide-BSA conjugate coated on plate; mAb 5 μg/mL.
Method: Microtiter plates were coated with tetrasaccharide (3)-BSA conjugate (3A), pentasaccharide (2)-BSA conjugate (3B), hexasaccharide (4)-BSA conjugate (3C), and decasaccharide (1)-BSA conjugate (3D) at the indicated carbohydrate concentrations. Anti-Psl mAbs class I (Cam-003, ●), class II (WapR-001, ▪), class III (WapR-016, ▴), and R347 (♦) (5 μg/mL) were tested for reactivity with each oligosaccharide component. The optical density (OD) values are reported as the means±SD. Class I (Cam-003), II (WapR-001), and III (WapR-016) anti-Psl mAbs were previously shown to bind three unique epitopes of Psl derived from P. aeruginosa.
The conjugations were performed as instructed by Pierce Endogen Inc. In short, the thiol derivative (2.5 eq. excess to available MI-groups on the protein), deprotected just prior to conjugation as described above, was dissolved in ddH2O (100 μL) and added to a solution of the maleimide activated protein (2 mg) in conjugation buffer sodium phosphate pH 7.2 containing EDTA and sodium azide (200 μL). The mixture was incubated at room temperature for 18 h and then purified by Millipore Centriplus centrifugal filter devices with a 10 kDa molecular cutoff. All centrifugations were performed at 4° C. for 25 min, 3000 rpm. The reaction mixture was centrifuged and the filter washed with sodium phosphate buffer pH 7.4 (3×200 μL). The conjugate was retrieved and taken up in sodium phosphate buffer pH 7.4, 0.15 M sodium chloride (1 mL). This gave glycoconjugates with a molar carbohydrate/BSA ratio of 7:1 for tetrasaccharide 3, 8:1 for pentasaccharide 2, 15:1 for hexasaccharide 4, and 5:1 for decasaccharide 1 as determined by quantitative monosaccharide analysis by HPAEC/PAD and the Lowry protein concentration assay.
ELISA plates (Nunc MaxiSorp) were coated overnight at 4° C. with 3-fold serial dilutions of oligosaccharide-BSA conjugates (relative to the concentration of the conjugated oligosaccharides) followed by washing with PBS supplemented with 0.1% Tween 20 (PBS-T) and blocking with PBS supplemented with 1% bovine serum albumin (PBS-B). The coated ELISA plates were incubated with anti-Psl antibodies (5 μg/mL in PBS-B) for 1 h at 4° C. Next the plates were washed with PBS-T and treated with HRP-conjugated anti-human secondary antibodies for 1 h followed by development and analysis as described (Digiandomenico, A., et al., J. Exp. Med. 2012, 209, 1273-1287).
After confirming the structural integrity of the synthetic Psl oligosaccharides, the ability of various anti-Psl mAbs to recognize the synthetic oligosaccharides was examined as follows. […]

SMILES | ELISA reactivity with WapR-016
CC1O[C@@H](OC2C(O)[C@H](OC3C(O[C@H]4OC(CO)[C@@H](O)C(O)C4O)[C@H](OC4C(O)[C@H](OC5C(O)[C@H](OC6C(O)[C@H](OCN)OC(CO)[C@H]6O)OC(C)[C@@H]5O)OC(CO)[C@H]4O)OC(CO)[C@H]3O)OC(CO)[C@H]2O)C(O)C(O[C@@H]2OC(CO)[C@@H](O)C(O[C@@H]3OC(CO)[C@@H](O)C(O)C3O[C@H]3OC(CO)[C@@H](O)C(O)C3O)C2O)[C@H]1O (stereo partly shown) [compound 1] | weakly
CC1O[C@@H](OC2C(O)[C@H](OCN)OC(CO)[C@H]2O)C(O)C(O[C@@H]2OC(CO)[C@@H](O)C(O[C@@H]3OC(CO)[C@@H](O)C(O)C3O[C@H]3OC(CO)[C@@H](O)C(O)C3O)C2O)[C@H]1O (stereo partly shown) [compound 2] | did not bind
CC1O[C@@H](OC2C(O)[C@H](OCN)OC(CO)[C@H]2O)C(O)C(O[C@@H]2OC(CO)[C@@H](O)C(O[C@@H]3OC(CO)[C@@H](O)C(O)C3O)C2O)[C@H]1O (stereo partly shown) [compound 3] | did not bind
CC1O[C@@H](OC2C(O)[C@H](OCN)OC(CO)[C@H]2O)C(O)C(O[C@@H]2OC(CO)[C@@H](O)C(O[C@@H]3OC(CO)[C@@H](O)C(O[C@@H]4OC(CO)[C@@H](O)C(O)C4O)C3O[C@H]3OC(CO)[C@@H](O)C(O)C3O)C2O)[C@H]1O (stereo partly shown) [compound 4] | react potently
